Patent US20100062059A1, “S-Nitrosothiols Containing Composition for the Treatment of Fatty Liver Diseases, Obesity and Other Diseases Associated with the Metabolic Syndrome and the Use of Such Compositions” (PROTAGEN AKTIENGESELLSCHAFT, priority 2006, published 2010)

What was measured:
[1] = system: Wistar rats with hepatic steatosis induced by a choline-deficient diet; assay: Hydroperoxide (LOOH) concentration in the liver of rats with diet-induced hepatic steatosis; format: in vivo; conditions: control group 3.2±0.4
Procedure: Wistar rats with hepatic steatosis induced by a choline-deficient diet were assigned to three groups to perform the tests with the administration of S-nitroso-N-acetylcysteine (SNAC), which is one of the active principles of the present invention, and to evaluate the concentration of hydroperoxides (LOOH) in the liver.
A first group of animals, group 1, was treated with a solution of S-nitroso-N-acetylcysteine, which was administrated orally to the animals at a dose of 1.4 mg/kg/day. A second group of animals, group 2, was treated with N-acetylcysteine (NAC), which was also administrated orally to the animals at a dose of 7.0 mg/kg/day.

[2] = system: soy lipoxigenase (SLO); assay: Linoleic acid (LA) peroxidation catalyzed by soy lipoxigenase, absorbance at 234 nm; format: biochemical
Procedure: This referred effect may be shown by the analysis of two kinetic parameters: initial velocity and extension of the peroxidation reaction until the chemical equilibrium is reached. Such parameters were analyzed by ultraviolet spectrophotometry and the kinetic curves (a′, b′, c′ and d′) were obtained from absorbance variation monitored though the band with peak at 234 nm at a preferential temperature of 37° C. This band value is characteristic for combined dienes and may, therefore, act as LA peroxidation marker. For this Example, the first curve (a′) refers to a sample of linoleic acid whose peroxidation was catalyzed by incubation with soy lipo-oxygenase at a preferential concentration of 0.056 μmol/L; the second curve (b′) refers to a sample of linoleic acid whose peroxidation was catalyzed by incubation of the linoleic acid with a mixture of soy lipo-oxygenase in the presence of NAC at a preferential concentration of 560 μmol/L; the third curve (c′) refers to a sample of linoleic acid whose peroxidation was catalyzed by incubation of soy Lipo-oxygenase in the presence of SNAC at a preferential concentration of 56 μmol/L; and the fourth curve (d′) refers to a sample of linoleic acid whose peroxidation was catalyzed by incubation of soy lipo-oxygenase in the presence of SNAC at a preferential concentration of 560 μmol/L. FIG. 3 illustrates the absorbance curves obtained for the groups of the present Example. The interpretation of the curves is given by the initial velocity, which corresponds to the inclination of the initial section of the curves within approximately 10 seconds, and the extension of the reaction, which corresponds to the absorbance values on the plateaus of the curves.

[3] = system: human low density lipoprotein (LDL); assay: CuCl2-catalyzed oxidation of LDL suspension, fluorescence spectrophotometry; format: biochemical; conditions: LDL 200 μg/mL, CuCl2 300 μmol/L, 15 hours, SNAC 300 μmol/L, pH 7.4
Procedure: For this example, approximately 15 mL of a human low density lipoprotein (LDL) suspension at a concentration of around 200 μg/mL, in phosphate buffer, pH 7.4, aerated PBS (in vitro) were previously prepared and initially divided into three parts. A first part (a) with approximately 5 mL consisting of the previously prepared suspension solely; a second part (b) with approximately 5 mL, consisting of the LDL suspension incubated in a CuCl2 solution at a preferential concentration of 300 μmol/L for a period of around 15 hours; and a third part (c) with approximately 5 mL, consisting of the LDL suspension incubated in a CuCl2 solution at a preferential concentration of 300 μmol/L for a period of around 15 hours, in the presence of SNAC at a preferential concentration of 300 μmol/L.
A sample of each part was submitted to fluorescence spectrophotometry. FIG. 2 features the emission spectrum for the analyzed samples. […] The 410- and 440-nm emission peaks in the LDL suspension fluorescence spectrum correspond to the formation of a Schiff base adduct between the lipid oxidation products contained in the LDL particles (mainly the malondialdehyde [MDA]) and the free amino groups on LDL apolipoprotein (mainly apo-B-100), and are known as LDL oxidation markers.

[4] = system: Rats fed a choline-deficient diet; assay: Liver histology (hematoxylin and eosin) of rats fed a choline-deficient diet; format: in vivo; conditions: control: moderate macrovacuolar and microvacuolar steatosis in the periportal zone
Description: Rats fed a choline-deficient diet were selected to compose the Control Group when compared to SNAC-treated rats. Hematoxylin and eosin-stained histological sections of hepatic tissue were examined under optical microscopy, as shown on FIGS. 5A and 5B.

[5] = system: ob/ob mice; assay: Liver histology (hematoxylin and eosin) of ob/ob mice on MCD or hyperlipidemic diet; format: in vivo
Description: For the Example 4, ob/ob mice were selected. A first group of mice was fed a methionine/choline-deficient diet (Group MCD) and a second group of mice was fed a hyperlipidemic diet (Group H).
Animals were selected from both groups and hematoxylin and eosin-stained histological sections of the hepatic tissue of these animals were obtained and examined under optical microscopy.
Other animals selected from both groups of mice, Group MCD and Group H, were submitted to a 30-day treatment consisting of SNAC administration. After the 30th day, hematoxylin and eosin-stained histological sections of the hepatic tissue of these animals were obtained and examined under optical microscopy.
The remaining animals in Groups H and MCD were maintained on these diets up the 60th day and were put on SNAC administration from the 31st day on. After the 60th day of treatment, hematoxylin and eosin-stained histological sections of the hepatic tissue of these animals were obtained and examined under optical microscopy.

[6] = Body mass variation of animals on MCD or hyperlipidemic diet; format: in vivo; conditions: SNAC by gavage, four weeks
Description: Data are expressed as means±standard deviation.

[7] = NAC 560 μmol/L, LA 18.76 μmol/L, SLO 0.056 μmol/L, 37° C., curve b′
[8] = SNAC 56 μmol/L, reduction compared with NAC 560 μmol/L, curve c′

Row | SMILES | hydroperoxide concentration in the liver ([1]; group 2, oral, 7.0 mg/kg/day) | extension of the LA peroxidation reaction [2, 7] | initial velocity of the LA peroxidation reaction [2, 7] | hydroperoxide concentration in the liver ([1]; group 1, oral, 1.4 mg/kg/day) | 410 and 440 nm emission peaks (LDL oxidation markers) [3] | extension of the LA peroxidation reaction [2, 8] | initial velocity of the LA peroxidation reaction [2, 8] | extension of the LA peroxidation reaction ([2]; SNAC 560 μmol/L, curve d′) | initial velocity of the LA peroxidation reaction ([2]; SNAC 560 μmol/L, curve d′) | histological characteristics of hepatic tissue [4] | histological characteristics of the liver ([5]; Group H, diet concomitantly with 30-day SNAC administration) | histological characteristics of the liver ([5]; Group H, diet to 60th day, SNAC from the 31st to the 60th day) | histological characteristics of the liver ([5]; Group MCD, diet concomitantly with 30-day SNAC administration) | histological characteristics of the liver ([5]; Group MCD, diet to 60th day, SNAC from the 31st to the 60th day) | body mass increase ([6]; group H (untreated 28% increase)) | body mass increase ([6]; group MCD)
1 | CC(=O)N[C@@H](CS)C(=O)O [NAC, N-acetylcysteine, reference compound] | 0.7±0.2 nmol/g protein | reduced the extension | reduced the extension and velocity |  |  |  |  |  |  |  |  |  |  |  |  | 
2 | CC(=O)N[C@@H](CSN=O)C(=O)O [SNAC, S-nitroso-N-acetylcysteine] |  |  |  | 0.3±0.1 nmol/g protein | blockage of the increase of 410 and 440 nm peaks | reduction is more accentuated | reduction is more accentuated | reduction is considerably much pronounced | reduction is considerably much pronounced | normal liver in the periportal zone | consistent with normal livers | consistent with those of normal livers | consistent with normal livers | consistent with those of normal livers | remarkable reduction of body mass increase | practically eliminated the body mass increase
